The numbers were not newly measured in patent publication US9617270B2, “Cytotoxic benzodiazepine derivatives” (priority 2012, dated 2017), which cites them from elsewhere.

The conditions of the series: Phase I clinical evaluation.

Turning to `C=C1C[C@H]2C=Nc3cc(OCCCOc4cc5c(cc4OC)C(=O)N4CC(=C)C[C@H]4C=N5)c(OC)cc3C(=O)N2C1` [SJG-136], the adverse effects noted entry was “vascular leak syndrome, peripheral edema, liver toxicity and fatigue”; the maximum tolerated dose is 45 μg/m^2. For the same compound, for the setting “circulating lymphocytes”, the “DNA damage in circulating lymphocytes” value is on record as “noted at all doses”.
